For assay [1], the system named is Streptococcus pneumoniae. In words: Antibacterial activity against efflux-resistant Streptococcus pneumoniae B0326 by agar microdilution method. The class given is functional.
In assay [2] the test system is Streptococcus pyogenes. In words: Antibacterial activity against constitutive macrolide-lincosamide-streptogramin B-resistant Streptococcus pyogenes B0544 by agar microdilution method. Format: functional.
A further assay relates to Haemophilus influenzae. In words: Antibacterial activity against Haemophilus influenzae B0529 by agar microdilution method. The class given is functional.
Assay [3] deals with Staphylococcus aureus. Put plainly: Antibacterial activity against efflux-resistant Staphylococcus aureus B0331 by agar microdilution method. Format: functional.
In assay [4] the test system is Staphylococcus aureus. In words: Antibacterial activity against erythromycin A-susceptible Staphylococcus aureus B0329 by agar microdilution method.
Assay [5] has as its system Staphylococcus aureus. In words: Antibacterial activity against constitutive macrolide-lincosamide-streptogramin B-resistant Staphylococcus aureus B0330 by agar microdilution method. The class given is functional.
The subject of a further assay is Moraxella catarrhalis. Put plainly: Antibacterial activity against Moraxella catarrhalis B0324 by agar microdilution method. The class given is functional.
Assay [6] has as its system Staphylococcus aureus. In words: Antibacterial activity against inducible macrolide-lincosamide-streptogramin B-resistant Staphylococcus aureus B0538 by agar microdilution method. The class given is functional.
The subject of assay [7] is Streptococcus pneumoniae. Put plainly: Antibacterial activity against erythromycin-susceptible Streptococcus pneumoniae B0541 by agar microdilution method.
Assay [8] relates to Streptococcus pyogenes. In words: Antibacterial activity against inducible macrolide-lincosamide-streptogramin B-resistant Streptococcus pyogenes B0543 by agar microdilution method. Format: functional.
Assay [9] has as its system Streptococcus pyogenes. In words: Antibacterial activity against efflux-resistant Streptococcus pyogenes B0545 by agar microdilution method. Format: functional.
The test system of assay [10] is Streptococcus pneumoniae. Put plainly: Antibacterial activity against constitutive macrolide-lincosamide-streptogramin B-resistant Streptococcus pneumoniae B0627 by agar microdilution method. The class given is functional.
Assay [11] concerns Streptococcus pyogenes. Put plainly: Antibacterial activity against erythromycin A-susceptible Streptococcus pyogenes B0542 by agar microdilution method.

≈ marks a conversion by molar mass, not a printed value. A value given as a limit tells only on which side of the number the result lay.

For the compound `CC[C@H]1OC(=O)[C@H](C)C(=O)[C@H](C)[C@@H](O[C@@H]2O[C@H](C)C[C@H](N(C)C)[C@H]2O)[C@](C)(OCC(O)CNCCCCc2cccnc2)C[C@@H](C)NC(=O)[C@H](C)[C@@H](O)[C@]1(C)O` (stereo partly specified), the MIC was 1 µg/mL (≈ 1.26 µM) against Streptococcus pneumoniae [1]; 4 µg/mL (≈ 5.03 µM) in the assay on Streptococcus pyogenes [2]; 2 µg/mL (≈ 2.52 µM) against Haemophilus influenzae; 1 µg/mL (≈ 1.26 µM) with Staphylococcus aureus [3]; 0.5 µg/mL (≈ 0.629 µM) in the assay with Staphylococcus aureus [4]; greater than 64 µg/mL against Staphylococcus aureus [5]. For the same compound, the MIC against Moraxella catarrhalis was no more than 0.125 µg/mL; in the assay on Staphylococcus aureus [6], 1 µg/mL (≈ 1.26 µM); in the assay with Streptococcus pneumoniae [7], no more than 0.125 µg/mL; in the assay with Streptococcus pyogenes [8] it was no more than 0.125 µg/mL; with Streptococcus pyogenes [9] it was 0.5 µg/mL (≈ 0.629 µM); in the assay with Streptococcus pneumoniae [10], 0.5 µg/mL (≈ 0.629 µM). Further, in the assay on Streptococcus pyogenes [11], the MIC is no more than 0.125 µg/mL.

Take `CC[C@H]1OC(=O)[C@H](C)C(=O)[C@H](C)[C@@H](O[C@@H]2O[C@H](C)C[C@H](N(C)C)[C@H]2O)[C@](C)(OCC(O)CNCCCCc2ccccn2)C[C@@H](C)NC(=O)[C@H](C)[C@@H](O)[C@]1(C)O` (stereo partly specified): the MIC in the assay with Streptococcus pneumoniae [1] was 4 µg/mL (≈ 5.03 µM); in the assay on Streptococcus pyogenes [2] it was 32 µg/mL (≈ 40.3 µM); in the assay on Haemophilus influenzae, 4 µg/mL (≈ 5.03 µM); in the assay with Staphylococcus aureus [3] it was 2 µg/mL (≈ 2.52 µM); in the assay on Staphylococcus aureus [4] it was 1 µg/mL (≈ 1.26 µM); in the assay with Staphylococcus aureus [5] it was greater than 64 µg/mL. The MIC is no more than 0.125 µg/mL against Moraxella catarrhalis; 4 µg/mL (≈ 5.03 µM) against Staphylococcus aureus [6]; no more than 0.125 µg/mL in the assay on Streptococcus pneumoniae [7]; 0.5 µg/mL (≈ 0.629 µM) in the assay with Streptococcus pyogenes [8]; 1 µg/mL (≈ 1.26 µM) in the assay with Streptococcus pyogenes [9]; 2 µg/mL (≈ 2.52 µM) with Streptococcus pneumoniae [10]. This compound also showed an MIC against Streptococcus pyogenes [11] of 0.25 µg/mL (≈ 0.314 µM).

Take `CC[C@H]1OC(=O)[C@H](C)C(=O)[C@H](C)[C@@H](O[C@@H]2O[C@H](C)C[C@H](N(C)C)[C@H]2O)[C@](C)(OCC(O)CN2CCN(c3ccc(F)cc3)CC2)C[C@@H](C)NC(=O)[C@H](C)[C@@H](O)[C@]1(C)O` (stereo partly specified): the MIC with Streptococcus pneumoniae [1] is 16 µg/mL (≈ 19.4 µM); with Streptococcus pyogenes [2] it was greater than 64 µg/mL; against Haemophilus influenzae, 32 µg/mL (≈ 38.8 µM); against Staphylococcus aureus [3], 16 µg/mL (≈ 19.4 µM); in the assay with Staphylococcus aureus [4], 4 µg/mL (≈ 4.85 µM); in the assay on Staphylococcus aureus [5] it was greater than 64 µg/mL. Moreover, the MIC was determined as 4 µg/mL (≈ 4.85 µM) with Moraxella catarrhalis; 16 µg/mL (≈ 19.4 µM) in the assay on Staphylococcus aureus [6]; 0.5 µg/mL (≈ 0.606 µM) against Streptococcus pneumoniae [7]; 4 µg/mL (≈ 4.85 µM) against Streptococcus pyogenes [8]; 4 µg/mL (≈ 4.85 µM) with Streptococcus pyogenes [9]; 32 µg/mL (≈ 38.8 µM) with Streptococcus pneumoniae [10]. Besides, in the assay on Streptococcus pyogenes [11], the MIC is no more than 0.125 µg/mL.

`CC[C@H]1OC(=O)[C@H](C)C(=O)[C@H](C)[C@@H](O[C@@H]2O[C@H](C)C[C@H](N(C)C)[C@H]2O)[C@](C)(OCC(O)CN2CCN(c3ccc([N+](=O)[O-])cc3)CC2)C[C@@H](C)NC(=O)[C@H](C)[C@@H](O)[C@]1(C)O` (stereo partly specified): the MIC against Streptococcus pneumoniae [1] was 2 µg/mL (≈ 2.35 µM); in the assay on Streptococcus pyogenes [2], 8 µg/mL (≈ 9.39 µM); against Haemophilus influenzae, 8 µg/mL (≈ 9.39 µM); against Staphylococcus aureus [3], 2 µg/mL (≈ 2.35 µM); against Staphylococcus aureus [4] it was 1 µg/mL (≈ 1.17 µM); against Staphylococcus aureus [5], greater than 64 µg/mL. Also, the MIC in the assay with Moraxella catarrhalis is 0.5 µg/mL (≈ 0.587 µM); in the assay with Staphylococcus aureus [6], 2 µg/mL (≈ 2.35 µM); against Streptococcus pneumoniae [7] it was no more than 0.125 µg/mL; in the assay on Streptococcus pyogenes [8], 2 µg/mL (≈ 2.35 µM); with Streptococcus pyogenes [9], 1 µg/mL (≈ 1.17 µM); in the assay with Streptococcus pneumoniae [10] it was 4 µg/mL (≈ 4.69 µM). In the assay on Streptococcus pyogenes [11], this compound had an MIC of 0.25 µg/mL (≈ 0.293 µM).

As to `CC[C@H]1OC(=O)[C@H](C)C(=O)[C@H](C)[C@@H](O[C@@H]2O[C@H](C)C[C@H](N(C)C)[C@H]2O)[C@](C)(OCC(O)CNc2cnc3ccccc3c2)C[C@@H](C)NC(=O)[C@H](C)[C@@H](O)[C@]1(C)O` (stereo partly specified), the MIC against Streptococcus pneumoniae [1] is 2 µg/mL (≈ 2.53 µM); in the assay on Streptococcus pyogenes [2], 16 µg/mL (≈ 20.3 µM); with Haemophilus influenzae, 8 µg/mL (≈ 10.1 µM); in the assay with Staphylococcus aureus [3], 1 µg/mL (≈ 1.27 µM); in the assay on Staphylococcus aureus [4] it was 2 µg/mL (≈ 2.53 µM); against Staphylococcus aureus [5], greater than 64 µg/mL. In addition, the MIC against Moraxella catarrhalis was 0.5 µg/mL (≈ 0.634 µM); with Staphylococcus aureus [6], 2 µg/mL (≈ 2.53 µM); with Streptococcus pneumoniae [7], no more than 0.125 µg/mL; with Streptococcus pyogenes [8] it was 4 µg/mL (≈ 5.07 µM); against Streptococcus pyogenes [9], 8 µg/mL (≈ 10.1 µM); in the assay with Streptococcus pneumoniae [10], 8 µg/mL (≈ 10.1 µM). Also, the MIC with Streptococcus pyogenes [11] is no more than 0.125 µg/mL.

Turning to `CC[C@H]1OC(=O)[C@H](C)C(=O)[C@H](C)[C@@H](O[C@@H]2O[C@H](C)C[C@H](N(C)C)[C@H]2O)[C@](C)(OCC(O)CNc2ccc3ncccc3c2)C[C@@H](C)NC(=O)[C@H](C)[C@@H](O)[C@]1(C)O` (stereo partly specified), the MIC is 1 µg/mL (≈ 1.27 µM) against Streptococcus pneumoniae [1]; 8 µg/mL (≈ 10.1 µM) against Streptococcus pyogenes [2]; 0.5 µg/mL (≈ 0.634 µM) against Haemophilus influenzae; 0.25 µg/mL (≈ 0.317 µM) with Staphylococcus aureus [3]; 1 µg/mL (≈ 1.27 µM) in the assay on Staphylococcus aureus [4]; greater than 64 µg/mL with Staphylococcus aureus [5]. Besides, the MIC against Moraxella catarrhalis was 1 µg/mL (≈ 1.27 µM); against Staphylococcus aureus [6], 2 µg/mL (≈ 2.53 µM); against Streptococcus pneumoniae [7], no more than 0.125 µg/mL; against Streptococcus pyogenes [8], 2 µg/mL (≈ 2.53 µM); in the assay with Streptococcus pyogenes [9], 4 µg/mL (≈ 5.07 µM); against Streptococcus pneumoniae [10], 2 µg/mL (≈ 2.53 µM). The compound also showed an MIC with Streptococcus pyogenes [11] of no more than 0.125 µg/mL.

As for `CC[C@H]1OC(=O)[C@H](C)C(=O)[C@H](C)[C@@H](O[C@@H]2O[C@H](C)C[C@H](N(C)C)[C@H]2O)[C@](C)(OCC(O)CNCc2ccc3ncccc3c2)C[C@@H](C)NC(=O)[C@H](C)[C@@H](O)[C@]1(C)O` (stereo partly specified), the MIC was 1 µg/mL (≈ 1.25 µM) in the assay with Streptococcus pneumoniae [1]; 8 µg/mL (≈ 9.96 µM) against Streptococcus pyogenes [2]; 1 µg/mL (≈ 1.25 µM) against Haemophilus influenzae; 0.25 µg/mL (≈ 0.311 µM) with Staphylococcus aureus [3]; 0.5 µg/mL (≈ 0.623 µM) with Staphylococcus aureus [4]; greater than 64 µg/mL against Staphylococcus aureus [5]. Moreover, the MIC in the assay with Moraxella catarrhalis is 1 µg/mL (≈ 1.25 µM); against Staphylococcus aureus [6], 0.5 µg/mL (≈ 0.623 µM); against Streptococcus pneumoniae [7], no more than 0.125 µg/mL; with Streptococcus pyogenes [8], 2 µg/mL (≈ 2.49 µM); against Streptococcus pyogenes [9] it was 2 µg/mL (≈ 2.49 µM); against Streptococcus pneumoniae [10] it was 4 µg/mL (≈ 4.98 µM). Further, the MIC in the assay on Streptococcus pyogenes [11] is no more than 0.125 µg/mL.

For the origin of these results see ChEMBL document CHEMBL1212927, “Synthesis and structure-activity relationships of novel 8a-aza-8a-homoerythromycin A ketolides” (2010).
